Test results as given in patent publication US10660333B2, “Substituted 2-heterocyclylimidazolylcarboxamides as pesticides” (BAYER CROPSCIENCE AKTIENGESELLSCHAFT, priority 2016, dated 2020).
Read-outs that look alike come from different tables or passages of the source.

Legend:
Format in all cases: in vivo
Myzus persicae [1] = test: Myzus persicae - spray test (MYZUPE), comparison with prior art; conditions: Myzus persicae, read-out: % efficacy
Experimental: Myzus persicae—Spray Test (MYZUPE)
(§1) To produce a suitable active ingredient formulation, 1 part by weight of active ingredient is dissolved with the specified parts by weight of solvent and made up to the desired concentration with water containing an emulsifier concentration of 1000 ppm. To produce further test concentrations, the formulation is diluted with emulsifier-containing water.
Discs of Chinese cabbage leaves (Brassica pekinensis) infested by all stages of the green peach aphid (Myzus persicae) are sprayed with an active ingredient formulation of the desired concentration.
(§2) After the desired period of time, the efficacy in % is determined. 100% means that all the aphids have been killed; 0% means that no aphids have been killed.

Myzus persicae [2] = test: Myzus persicae - oral test (MYZUPE O), comparison with prior art; conditions: Myzus persicae, po, 120 h, 5 dat, read-out: % efficacy
Experimental: Myzus persicae—Oral Test (MYZUPE O)
To produce a suitable active ingredient formulation, 1 part by weight of active ingredient is dissolved with the specified parts by weight of solvent and made up to the desired concentration with water.
50 μl of the active ingredient formulation are transferred into microtitre plates and made up to a final volume of 200 μl with 150 μl of IPL41 insect medium (33%+15% sugar). Subsequently, the plates are sealed with parafilm, which a mixed population of green peach aphids (Myzus persicae) within a second microtitre plate is able to puncture and imbibe the solution.
as §2

Myzus persicae [3] = test: Myzus persicae - spray test (MYZUPE S), bell pepper plants; conditions: Myzus persicae, 144 h, 6 dat, read-out: % efficacy
Experimental: Myzus persicae—Spray Test (MYZUPE S)
as §1, with “water. If the addition of ammonium salts or/and penetrants is required, these are each added in a concentration of 1000 ppm to the formulation solution.” for “water.”
Bell pepper plants (Capsicum annuum) severely infested with the green peach aphid (Myzus persicae) are treated by spraying with the active ingredient formulation in the desired concentration.
After the desired time, the kill in % is determined. 100% means that all the animals have been killed; 0% means that no animals have been killed.

Aphis gossypii = Aphis gossypii - spray test (APHIGO S), cotton plants; conditions: 144 h, 6 dat, read-out: % efficacy
Experimental: Aphis gossypii—Spray Test (APHIGO S)
as §1, with “water. If the addition of ammonium salts or/and penetrants is required, these are each added in a concentration of 1000 ppm to the formulation solution.” for “water.”
Cotton plants (Gossypium hirsutum) heavily infested by the cotton aphid (Aphis gossypii) are sprayed with an active ingredient formulation of the desired concentration.
After the desired time, the kill in % is determined. 100% means that all the aphids have been killed; 0% means that no aphids have been killed.

Myzus persicae [4] = test: Myzus persicae - drench test (MYZUPE D), savoy cabbage; conditions: Myzus persicae, soil, 240 h, 10 dat, read-out: % efficacy
Experimental: Myzus persicae—Drench Test (MYZUPE D)
To produce a suitable active ingredient formulation, 1 part by weight of active ingredient is mixed with the specified amounts of solvent and emulsifier, and the concentrate is diluted with water to the desired concentration, it being necessary to include the volume of soil which is drenched in the calculation. It should be ensured that a concentration of 40 ppm of emulsifier in the soil is not exceeded. To produce further test concentrations, water is used for dilution.
Savoy cabbage (Brassica oleracea) in pots with soil and infested by all stages of the green peach aphid (Myzus persicae) is watered with an active ingredient formulation of the desired concentration.
as §2

[5] = 120 h, 4 g/ha (g of ai/ha), 5 dat
[6] = 120 h, 20 g/ha (g of ai/ha), 5 dat
[7] = 120 h, 100 g/ha (g of ai/ha), 5 dat

Structure (SMILES)	Emax at 4 g/ha (Myzus persicae [1]; 144 h, 4 g/ha, 6 dat) [%]	Emax at 20 g/ha (Myzus persicae [1]; 144 h, 20 g/ha, 6 dat) [%]	Emax at 100 g/ha (Myzus persicae [1]; 144 h, 100 g/ha, 6 dat) [%]	Emax at 0.8 ppm (Myzus persicae [2]) [%]	Emax at 4 ppm (Myzus persicae [2]) [%]	Emax at 4 g/ha (Myzus persicae [1]; [5]) [%]	Emax at 20 g/ha (Myzus persicae [1]; [6]) [%]	Emax at 100 g/ha (Myzus persicae [1]; [7]) [%]	Emax at 0.16 ppm (Myzus persicae [3]) [%]	Emax at 0.16 ppm (Aphis gossypii) [%]	Emax at 0.8 ppm (Aphis gossypii) [%]	Emax at 0.16 ppm (Myzus persicae [4]) [%]	Emax at 500 g/ha (Myzus persicae [1]; 120 h, 500 g/ha, 5 dat) [%]	Emax at 0.8 ppm (Myzus persicae [3]) [%]	Emax at 0.8 ppm (Myzus persicae [4]) [%]
O=C(Nc1cccnc1)c1c[nH]cn1 [WO 2011/009804 (Ex. 13), reference compound]	0	0	0	0	0										
Cc1nc(C(=O)Nc2cccnc2)c[nH]1 [WO 2011/009804 (Ex. 14), reference compound]				0	0	0	0	0							
CN(C(=O)c1cnc(C2CC2)n1C)c1cccnc1 [reference compound]									5	10	30				
CCc1ncc(C(=O)N(C)c2cccnc2)n1C [reference compound]									0	0	0	0			
Cc1ncc(C(=O)N(C)c2cccnc2)n1C [reference compound]									0	0	0	30			
CCOC(=O)c1cc(-c2ncc(C(=O)N(C)c3cccnc3)n2C)on1 [reference compound]				0	0	0	0	0					0		
CN(C(=O)c1cnc(-c2cc(-c3ccccc3)no2)n1C)c1cccnc1 [reference compound]	0	0							0	0	0	0		0	0
Cc1ncc(C(=O)Nc2cccnc2)n1C [reference compound]						0	0		0	0	0	0		30	0
